{
  "source": "patent US9795570B2",
  "about": "“Modulation of macrophage phenotype by emodin” (University of South Carolina, priority 2016, dated 2017)",
  "key": {"[1]": {"test_system": "NFκB p65, STAT1, IRF5, STAT6, IRF4", "test": "Nuclear translocation of transcription factors (western blotting of nuclear fractions)", "format": "cell-based, mouse", "conditions": "emodin 50 μM 24 h", "experimental": "Following stimulation with IL4 or LPS+IFNγ with or without emodin for varying periods, macrophages were lysed with cell signaling lysis buffer (Millipore) for whole cell lysates. Cytoplasmic and nuclear extracts were prepared using the Epiquik Nuclear Extraction kit (Epigentek, Farmingdale, N.Y.). Total protein was separated on 4-20% Tris-glycine pre-cast gels (Pierce) and transferred onto Nitrocellulose membranes (Bio-Rad Life Science, Hercules, Calif.). The membranes were then probed with HRP conjugated secondary antibodies, and signals were detected using Pierce ECL Western Blotting Substrate (Pierce)."}, "[2]": {"test_system": "Peritoneal macrophages from C57Bl/6 mice", "test": "Macrophages stimulated with EO771 tumor conditioned medium (qPCR, histone kit, ChIP)", "format": "cell-based, mouse", "experimental": "4T1 cells were obtained from the American Type Culture Collection (ATCC), and EO771 cells were developed from an ER+ spontaneous mammary adenocarcinoma. The cells were maintained in culture according to standard practice. For tumor conditioned medium (TCM) collection, cells were grown until they were 80-90% confluent. Following, the medium was replaced with serum free (SF) DMEM and the cells were cultured for 48 h. The medium was then collected and passed through a 0.45 μm filter (Millipore Corp., Bedford, Mass.). The medium was concentrated 10 times using centrifuge filters with a 3,000 MW cutoff (Millipore). Before use the concentrated conditioned medium was diluted 1:2 with fresh SF DMEM.\nMice were injected with 3 mL of 4% thioglycollate solution. After 3 d, macrophages were collected by peritoneal lavage with PBS. The cells were resuspended in DMEM with 10% FBS and cultured for 2 h. The non-adherent cells were then washed away and the remaining cells were cultured overnight in SF DMEM. The cells were then treated with TCM with or without emodin.\nFor qPCR, cells were lysed with Qiazol, and RNA was extracted using Zymo research Direct-zol RNA isolation kit. cDNA was then made from 1 μg of RNA using iScript cDNA Synthesis Kit (Bio-Rad Life Science, Hercules, Calif.). Run conditions were 95° C. for 10 s, 58° C. for 15 s, 70° C. for 15 s. Samples were run in duplicate on a Bio-rad CFX Real Time thermocycler.\nMacrophages were fixed in 1% formaldehyde. Excess formaldehyde was quenched with glycine, and the cells were collected in PBS by scraping. The cells were lysed (0.5% IGEPAL, 4 mM HEPES), and the nuclei were resuspended in nuclear lysis buffer (1% SDS, 10 mM EDTA, and 50 mM Tris, pH 8.1). The DNA was sheared by sonication using a Diagnode Bioruptor Pico (Diagenode, Denville, N.J.) for 25 cycles of 30 s on/30 s off. Then 8 μg chromatin was diluted 1:10 (0.01% SDS, 1.1% Triton X-100, 1.2 mM EDTA, 16.7 mM Tris-HCl, pH 8.1, 167 mM NaCl), and 2% of the input was removed from each sample and saved for analysis. Anti-H3K27m3 (Abcam) was added to each sample along with 20 μL of protein A+G magnetic beads (Millipore), and the samples were incubated overnight at 4° C. The beads were washed with low salt, high salt, LiCl, and TE wash buffers sequentially, and the DNA was eluted off the beads with Proteinase K at 62° C. for 2 h (elution buffer: 200 mM NaCl, 1% SDS and 50 mM Tris). The DNA was then analyzed by qPCR.\nIn order to detect genome wide levels of histone H3 modifications, histones were isolated from macrophages treated with TCM with or without emodin for 24 h using EpiQuik total histone extraction kits (Epigentek, Farmingdale, N.Y.) according to the manufacturer's instructions. Histones (100 ng) were then analyzed using an EpiQuik Histone H3 modification kits (EpiGentek) according to the manufacturer's instructions."}, "4T1 tumors": {"test_system": "4T1 tumors", "test": "Survival after surgical removal of primary 4T1 tumors", "format": "in vivo, BALB/c mice", "conditions": "10 mice", "experimental": "A cohort of 30 8-week-old, female BALB/c mice were injected with 2×10^5 4T1 cells suspended in 20 μL PBS in each of their fourth mammary fat pads. The mice were randomly divided into three groups with 10 mice in each group. On day 10, tumors had reached a volume of 100-200 mm^3, and were surgically removed. […] Post-surgical treatment began on day 11. This treatment involved each of the three groups receiving 800 μL daily IP injections of one of the following mixtures: PBS with 2% DMSO by volume (Control group), PBS with 1% DMSO by volume and 1% by volume of 50 mg/mL emodin in DMSO, or PBS with 2% by volume of 50 mg/mL emodin in DMSO. […] Daily IP emodin injections were administered until day 24; from day 25 to day 41, emodin was administered every other day. During the 41 days after the tumor removal, 3 mice in the control group died, while 2 mice and 1 mouse died in low emodin group and high emodin group, respectively (FIG. 16)."}},
  "data": [
    {"compound": "Cc1cc(O)c2c(c1)C(=O)c1cc(O)cc(O)c1C2=O", "note": "[emodin]", "values": [
      {"measurement": "STAT6 nuclear translocation", "setting": "[1]; IL4 stimulation", "value": "drastically inhibit"},
      {"measurement": "nuclear IRF4", "setting": "[1]; IL4 stimulation", "value": "inhibited"},
      {"measurement": "NFκB p65 nuclear translocation", "setting": "[1]; LPS/IFNγ stimulation", "value": "drastically inhibit"},
      {"measurement": "STAT1 and IRF5 nuclear translocation", "setting": "[1]; LPS/IFNγ stimulation", "value": "inhibited"},
      {"measurement": "TCM-decreased H3K27m3 on the promoters of IRF4, Arg1, and C/EBPβ", "setting": "[2]; ChIP assay", "value": "reversed the reduction"},
      {"measurement": "TCM-increased expression of ICAM1", "setting": "[2]; EO771 TCM, 24 h, qPCR", "value": "dose dependently blocked"},
      {"measurement": "TCM-induced expression of Arg1, C/EBPβ and IRF4", "setting": "[2]; EO771 TCM, 24 h, qPCR", "value": "dose-dependently inhibited"},
      {"measurement": "expression of CSFr1", "setting": "[2]; EO771 TCM, 24 h, qPCR", "value": "decreased the expression"},
      {"measurement": "expression of MMP2 and MMP9", "setting": "[2]; EO771 TCM, 24 h, qPCR", "value": "inhibited expression"},
      {"measurement": "TCM-increased expression of JMJD3", "setting": "[2]; EO771 TCM, emodin 25 μM or 50 μM, 24 h", "value": "significantly attenuated"},
      {"measurement": "global levels of H3K27 methylation", "setting": "[2]; EpiQuik histone modification kit", "value": "no effects"},
      {"measurement": "mice that died during the 41 days after tumor removal", "setting": "4T1 tumors; high emodin dose group, approximately 40 mg/kg IP", "value": 1, "unit": "mouse"},
      {"measurement": "mice that died during the 41 days after tumor removal", "setting": "4T1 tumors; low emodin dose group, approximately 20 mg/kg IP", "value": 2, "unit": "mice"}
    ]}
  ]
}
